Counter-ions that a name gives are not always drawn. Like-named read-outs stand apart in the source and are kept apart here.
How the values were obtained:
[1] = system: glucosamine-6-phosphate deaminase encoded by nagB; experiment: Conversion of GA6P to F6P by glucosamine-6-phosphate deaminase, allosteric effect; type: biochemical, E. coli; conditions: FIG. 3
Text: One aspect of the selection method of the present invention provides an additional advantageous feature. […] This surprising finding is in accordance with studies done with E. coli (Calcagno, M, et al (1984) Biochim Biophys Acta 787: 165-173). Thus, should any glucosamine be metabolised to NAGA and in turn eventually to NAG6P then that NAG6P would ensure conversion of GA6P to F6P by the enzyme glucosamine-6-phosphate deaminase or at least aid the conversion step. This is an advantageous feature of the highly preferred selection method of the present invention.

[2] = system: natural plant cells; conditions: formed from milli-molar amounts of glucosamine; cited from earlier work
[3] = system: guar cotyledonary explants transformed with nagB; experiment: Selection of transgenic guar shoots on glucosamine selection medium, GUS histochemical assay; type: cell-based, Cyamopsis tetragonoloba
Description: Transformation of guar cotyledonary explants was performed according to Joersbo and Okkels (PCT/DK95/00221) using Agrobacterium tumefaciens LBA4404 harbouring the plasmid shown in FIG. 10. Selection of transgenic shoots was accomplished using the above-mentioned selection medium with various concentrations of glucosamine, sucrose and Garnborg B5 salts. After four weeks the shoots were harvested and all explants were transferred to fresh selection medium (same composition) and after another four weeks of selection the last shoots were harvested. After harvest, the shoots were analysed for β-glucuronidase (GUS) activity using the histochemical assay (Jefferson et al, 1987, EMBO J 6: 3901-3907).

[4] = system: Solanum tuberosum cv Saturna explants; type: cell-based; conditions: for Number of transformed areas per explant / Number of transgenic shoots / Transformation frequency (number transgenic shoots/started explants) / Transformation frequency (%) (Number transgenic shoots/started explants): sucrose 7.5 g/l
Description: The disarmed Agrobacterium tumefaciens strain LBA 4404, containing the helper vir plasmid pRAL4404 (Hoekema et al, 1983 Nature 303 pp 179-180), was cultured on YMB agar (K2HPO4.3H2O 660 mg l^−1, MgSO4 200 mg l^−1, NaCl 100 mg l^−1, mannitol 10 g l^−1, yeast extract 400 mg l^−1, 0.8% w/v agar, pH 7.0) containing 100 mg l^−1 rifampicin and 500 mg l^−1 streptomycin sulphate. Transformation with pVICTOR IV GNG E35S nagB IV2 or pVICTOR IV GNG rbc nagB IV2 or pVICTOR IV GNG E35 S nagB was accomplished using the freeze-thaw method of Holters et al (1978 Mol Gen Genet 163 181-187) and transformants were selected on YMB agar containing 100 mg l^−1 rifampicin and 500 mg l^−1 streptomycin, and 50 mg l^−1 gentamycin sulphate. Transformation with a control construct lacking the nagB gene was performed in the same manner.
Shoot cultures of Solanum tuberosum cv Saturna were maintained on LS agar containing Murashige Skoog basal salts (Sigma M6899) (Murashige and Skoog, 1965, Physiol Plant 15 473-497) with 2 μM silver thiosulphate, and nutrients and vitamins as described by Linsmaier and Skoog (1965 Physiol Plant 18 100-127). Cultures were maintained at 25° C. with a 16 h daily photoperiod. After approximately 40 days, subculturing was performed during and the shoots cut into mononodal segments of approximately 8 mm length.
Shoot cultures of approximately 40 days maturity (5-6 cm height) were cut into 8 mm internodal segments and/or leaves were cut off and wounded by making 24 small cuts over the midrib of the leaf. These were then placed into liquid LS-medium containing Agrobacterium tumefaciens transformed with pVICTOR IV GNG E35 S nagB IV2 or pVICTOR IV GNG rbc nagB IV2 or pVICTOR IV GNG E35S nagB (A660=0.5, pathlength 1 cm). Following incubation at room temperature for 30 minutes, the segments were dried by blotting on to sterile filter paper and transferred to LS agar (0.8% w/v containing 2 mg l^−1 2,4-D and 500 μg l^−1 trans-zeatin. The explants were covered with filter paper, moistened with LS medium, and covered with a cloth for three days at 25° C. Following this treatment, the segments can be washed with liquid LS medium containing 800 mg l^−1 carbenicillin, and then transferred on to LS agar (0.8% w/v) containing 1 mg l^−1 trans-zeatin, […] gibberellic acid (GA3), with sucrose (eg 7.5 g l^−1). This agar can optionally contain glucosamine (eg 2.5 g l^−1). The segments were sub-cultured to fresh substrate each […]. In 3 to 4 weeks, shoots develop from the segments and the formation of new shoots continued for 3-4 months.
The transgenic plants may be verified by performing a GUS assay on the cointroduced β-glucuronidase gene according to Hodal, L. et al. (Pl. Sci. (1992), 87: 115-122).

[5] = system: non-transgenic guar cotyledons; type: cell-based; conditions: glucosamine 3.0 g/l
Description: In order to establish the toxicity of glucosamine to guar explants, a dose-response curve with glucosamine concentrations ranging from 0 to 5.0 g/l was made using non-transgenic guar cotyledons as explants. The effect on shoot formation on the explants was used to determine the toxicity of glucosamine (FIG. 20).
The guar explants were obtained as follows. Guar seeds were sterilized in a 2.5% sodium hypochlorite solution at pH 7.0 added two drops of Tween 80 pr 100 ml solution. The seeds were stirred for 25 minutes in this solution and then washed five times with sterile water. Seeds were sown on germination medium (4.43 g/l MSMO (Sigma M6899), 20 g/l sucrose, 8.0 g/l agar, pH adjusted to 5.8 with KOH) and placed at 25° C. for 11-13 days at a 12 h/12 h day/night regime.
The cotyledons including about 2 mm of hypocotyl were excised from the seedlings and were used as explants for this experiment as well as for transformation experiments. The cotyledons were placed on selection medium containing various concentrations of glucosamine.
0-5 g/l D-glucosamine, HCl (according to the experiment)
After three weeks, the percentage of explants forming shoots on the various glucosamine containing media were determined and the results are given in FIG. 20.
In order to be able to find appropriate selection conditions, some factors affecting the toxicity of glucosamine were studied. Initially, sucrose was tested at various concentrations (5-40 g/l) in the selection medium. […] It is expected that other saccharides such glucose, fructose, maltose, mannose etc may also affect the effect of glucosamine.
Next, the effect of the concentration of the Gamborg B5 salts in the selection medium was tested in the presence of glucosamine (3.0 g/l). We investigated the use of these salts with a view to decreasing the carbon content of the medium.

[6] = second table, glucosamine 1 g/l
[7] = second table, glucosamine 2.5 g/l
[8] = second table, glucosamine 5 g/l
[9] = second table, glucosamine 7.5 g/l
[10] = second table, glucosamine 10 g/l
[11] = glucosamine 2 g/l, NH4/NO3 1298 g/l
[12] = glucosamine 2.5 g/l, NH4/NO3 1189 g/l
[13] = glucosamine 3 g/l, NH4/NO3 1093 g/l

For CC(=O)N[C@H]1C(O)O[C@H](COP(=O)(O)O)[C@@H](O)[C@@H]1O (stereo partly drawn) [NAG6P, N-acetyl glucosamine 6-phosphate], the “Effect on the conversion of GA6P to F6P by glucosamine-6-phosphate deaminase” value [1] was “positive effect (an allosteric effect)”.
For N[C@H]1C(O)O[C@H](COP(=O)(O)O)[C@@H](O)[C@@H]1O (stereo partly drawn) [GA6P, glucosamine-6-phosphate], the “Toxicity to natural plant cells” value [2] is listed as “toxic to natural plant cells”.
With N[C@H]1C(O)O[C@H](CO)[C@@H](O)[C@@H]1O (stereo partly drawn) [glucosamine, D-glucosamine, HCl] the “No of GUS-positive shoots” value ([3]; sucrose 10 g/l, glucosamine 2.5 g/l, B5-salts 3.2 g/l) was 2, the “No of GUS-positive shoots” value ([3]; sucrose 20 g/l, glucosamine 2.5 g/l, B5-salts 2.4 g/l) was 1 and the “No of GUS-positive shoots” value ([3]; sucrose 20 g/l, glucosamine 3.0 g/l, B5-salts 2.4 g/l) was 1. For the same molecule, the “Effect of NH4NO3 content on toxicity of glucosamine” value [4] was “lowering the content of NH4NO3 makes the glucosamine less toxic”, the “Number of transformed areas per explant” value [4, 6] was 3.8 and the “Number of transgenic shoots” value [4, 6] was 1. The “Transformation frequency (number transgenic shoots/started explants)” value [4, 6] was 2, the “Number of transformed areas per explant” value [4, 7] was 0 and the “Number of transgenic shoots” value [4, 7] was 0. The “Transformation frequency (number transgenic shoots/started explants)” value [4, 7] was 0, the “Number of transformed areas per explant” value [4, 8] was 0 and the “Number of transgenic shoots” value [4, 8] was 0. For the same molecule, the “Transformation frequency (number transgenic shoots/started explants)” value [4, 8] was 0, the “Number of transformed areas per explant” value [4, 9] was 0 and the “Number of transgenic shoots” value [4, 9] was 0. For the same molecule, the “Transformation frequency (number transgenic shoots/started explants)” value [4, 9] was 0, the “Number of transformed areas per explant” value [4, 10] was 0 and the “Number of transgenic shoots” value [4, 10] was 0. The “Transformation frequency (number transgenic shoots/started explants)” value [4, 10] was 0, the “Number of transformed areas per explant” value ([4]; glucosamine 2 g/l) was 0 and the “Transformation frequency (%) (Number transgenic shoots/started explants)” value ([4]; glucosamine 2 g/l) was 0%. For the same molecule, the “Number of transformed areas per explant” value [4, 11] was 0.025, the “Number of transgenic shoots” value [4, 11] was 0 and the “Transformation frequency (%) (Number transgenic shoots/started explants)” value [4, 11] was 0%. The “Number of transgenic shoots” value ([4]; glucosamine 2 g/l, NH4/NO3 1650 g/l) was 0, the “Number of transformed areas per explant” value ([4]; glucosamine 2.5 g/l) was 0 and the “Transformation frequency (%) (Number transgenic shoots/started explants)” value ([4]; glucosamine 2.5 g/l) was 0%. For the same molecule, the “Number of transformed areas per explant” value [4, 12] was 0, the “Number of transgenic shoots” value [4, 12] was 0 and the “Transformation frequency (%) (Number transgenic shoots/started explants)” value [4, 12] was 0%. For the same molecule, the “Number of transgenic shoots” value ([4]; glucosamine 2.5 g/l, NH4/NO3 1650 g/l) was 0, the “Number of transformed areas per explant” value ([4]; glucosamine 3 g/l) was 0 and the “Transformation frequency (%) (Number transgenic shoots/started explants)” value ([4]; glucosamine 3 g/l) was 0%. The “Number of transformed areas per explant” value [4, 13] was 0, the “Number of transgenic shoots” value [4, 13] was 0 and the “Transformation frequency (%) (Number transgenic shoots/started explants)” value [4, 13] was 0%. The “Number of transgenic shoots” value ([4]; glucosamine 3 g/l, NH4/NO3 1650 g/l) was 0, the “Shoot formation on guar explants (%)” value ([5]; Gamborg B5 salts in selection medium 1.6 g/l) was 6.2% and the “Shoot formation on guar explants (%)” value ([5]; Gamborg B5 salts in selection medium 2.4 g/l) was 9.1%. For the same molecule, the “Shoot formation on guar explants (%)” value ([5]; Gamborg B5 salts in selection medium 3.2 g/l) was 17.4%.

From US6444878B1, “Method of plant selection using glucosamine-6-phosphate deaminase” (Danisco A/S, priority 1997, dated 2002)
